Where “and” joins values, the source holds several entries; their conditions need not be identical. Equal entries are not always repeated. Where two headings read alike, the source gives them in different places.
Columns and labels:
Enterococcus faecalis = conditions: DHP gas 0.5-1.0 ppm
[1] = system: Geobacillus stearothermophilus spores
Feline calicivirus = conditions: DHP gas 0.6 ppm; ~1 × 10^8 per inch^2
H1N1 virus = conditions: DHP gas 0.6 ppm, 1.12 × 10^6 per inch^2
Streptococcus pyogenes = conditions: DHP gas 0.6 ppm; 5 × 10^4 per inch^2
[2] = system: mold spoilage on fresh strawberries; conditions: DHP gas 0.1-0.4 ppm; 5 days; 73-78° F.; humidity 40-65%
Method: Experiments are conducted in a 1584 cubic foot test room. The temperature of test room is maintained between 73° F. and 78° F., and the humidity of the ambient air is between 40% and 65%. […] After the 5-day incubation period, the strawberries are evaluated for the presence of mold spoilage.

C. difficile (spores) = conditions: DHP gas 0.5-1.0 ppm, 3.78 × 10^6 per inch^2
[3] = system: Aspergillus Niger (vegetative); conditions: vegetative form; DHP gas 0.3 ppm; 2.2 × 10^4 per inch^2
MS2 bacteriophage = conditions: DHP gas 0.6 ppm; 1.25 × 10^3 per inch^2
[4] = Log2 spore strip, 72 hours exposure to DHP gas at about 0.3 ppm
[5] = Log 2 spore strip, 144 hours exposure to DHP gas at about 0.3 ppm
[6] = Log 2 spore strip, 216 hours exposure to DHP gas at about 0.3 ppm
[7] = Log2 spore strip, 288 hours exposure to DHP gas at about 0.3 ppm
[8] = Log3 spore strip, 40 hours exposure to DHP gas at about 0.3 ppm
[9] = Log3 spore strip, 47.75 hours exposure to DHP gas at about 0.3 ppm
[10] = Log3 spore strip, 60.2 hours exposure to DHP gas at about 0.3 ppm
[11] = Log3 spore strip, 67.5 hours exposure to DHP gas at about 0.3 ppm
[12] = Log3 spore strip, 100 hours exposure to DHP gas at about 0.3 ppm
[13] = Log 3 spore strip, 144 hours exposure to DHP gas at about 0.3 ppm
[14] = Log 3 spore strip, 216 hours exposure to DHP gas at about 0.3 ppm
[15] = Log4 spore strip, 121.4 hours exposure to DHP gas at about 0.3 ppm
[16] = Log4 spore strip, 192 hours exposure to DHP gas at about 0.3 ppm
[17] = Log 4 spore strip, 216 hours exposure to DHP gas at about 0.3 ppm
[18] = Log4 spore strip, 223.5 hours exposure to DHP gas at about 0.3 ppm
[19] = Log4 spore strip, 288 hours exposure to DHP gas at about 0.3 ppm

Question: How did the “Time to 90% reduction” value (Enterococcus faecalis) turn out when `OO` [DHP gas, hydrogen peroxide] was run?
Answer: <2 h

Question: What about the “Biological Change” value [1, 4] of the same compound?
Answer: turbidity

Question: And the “Color Change within 24 hour incubation” value [1, 4]?
Answer: light yellow

Question: What about the “Time of Change” value [1, 4] of the same compound?
Answer: 15 h

Question: What about the “Color Change within 24 hour incubation” value [1, 5] of the same compound?
Answer: very dark orange

Question: What about the “Time of Change” value [1, 5] of the same compound?
Answer: 22 h

Question: And the “Color Change within 24 hour incubation” value ([1]; Log 2 spore strip, 166.5 hours exposure to DHP gas at about 0.3 ppm)?
Answer: may have changed

Question: And the “Biological Change” value [1, 6]?
Answer: no turbidity

Question: What about the “Color Change within 24 hour incubation” value [1, 6] of the same compound?
Answer: very dark orange

Question: What about the “Time of Change” value [1, 6] of the same compound?
Answer: 22 h

Question: And the “Biological Change” value [1, 7]?
Answer: no turbidity

Question: What about the “Color Change within 24 hour incubation” value [1, 7] of the same compound?
Answer: very light orange

Question: What about the “Time of Change” value [1, 7] of the same compound?
Answer: 17 h

Question: What about the “Biological Change” value [1, 8] of the same compound?
Answer: Heavy turbidity

Question: What about the “Color Change within 24 hour incubation” value [1, 8] of the same compound?
Answer: + Light orange

Question: And the “Color Change within 24 hour incubation” value ([1]; Log3 spore strip, 42 hours exposure to DHP gas at about 0.3 ppm)?
Answer: +

Question: What about the “Color Change within 24 hour incubation” value ([1]; Log3 spore strip, 45.5 hours exposure to DHP gas at about 0.3 ppm) of the same compound?
Answer: +

Question: What about the “Biological Change” value [1, 9] of the same compound?
Answer: Less turbidity

Question: What about the “Color Change within 24 hour incubation” value [1, 9] of the same compound?
Answer: + Dark orange

Question: And the “Biological Change” value [1, 10]?
Answer: Heavy turbidity

Question: What about the “Color Change within 24 hour incubation” value [1, 10] of the same compound?
Answer: +

Question: And the “Color Change within 24 hour incubation” value ([1]; Log3 spore strip, 64.2 hours exposure to DHP gas at about 0.3 ppm)?
Answer: +

Question: And the “Color Change within 24 hour incubation” value ([1]; Log3 spore strip, 64.5 hours exposure to DHP gas at about 0.3 ppm)?
Answer: +

Question: And the “Biological Change” value [1, 11]?
Answer: Almost no turbidity

Question: And the “Color Change within 24 hour incubation” value [1, 11]?
Answer: +

Question: And the “Color Change within 24 hour incubation” value ([1]; Log3 spore strip, 70 hours exposure to DHP gas at about 0.3 ppm)?
Answer: +

Question: And the “Color Change within 24 hour incubation” value ([1]; Log3 spore strip, 85.1 hours exposure to DHP gas at about 0.3 ppm)?
Answer: +

Question: What about the “Color Change within 24 hour incubation” value ([1]; Log3 spore strip, 89 hours exposure to DHP gas at about 0.3 ppm) of the same compound?
Answer: +

Question: And the “Color Change within 24 hour incubation” value [1, 12]?
Answer: +

Question: And the “Time of Change” value [1, 12]?
Answer: 16 h and 22 to 24 h

Question: And the “Biological Change” value [1, 13]?
Answer: no turbidity

Question: And the “Color Change within 24 hour incubation” value [1, 13]?
Answer: very light orange

Question: And the “Time of Change” value [1, 13]?
Answer: 16.5 h

Question: And the “Color Change within 24 hour incubation” value ([1]; Log 3 spore strip, 166.5 hours exposure to DHP gas at about 0.3 ppm)?
Answer: −

Question: And the “Biological Change” value [1, 14]?
Answer: no turbidity

Question: And the “Color Change within 24 hour incubation” value [1, 14]?
Answer: very dark orange

Question: What about the “Time of Change” value [1, 14] of the same compound?
Answer: 22 h

Question: And the “Biological Change” value [1, 15]?
Answer: almost no turbidity

Question: What about the “Color Change within 24 hour incubation” value [1, 15] of the same compound?
Answer: −

Question: What about the “Time of Change” value [1, 15] of the same compound?
Answer: 8 to 15 h and 15 h

Question: And the “Time of Change” value ([1]; Log4 spore strip, 144 hours exposure to DHP gas at about 0.3 ppm)?
Answer: 17 h and 16.5 h

Question: What about the “Color Change within 24 hour incubation” value ([1]; Log 4 spore strip, 166.5 hours exposure to DHP gas at about 0.3 ppm) of the same compound?
Answer: −

Question: And the “Color Change within 24 hour incubation” value ([1]; Log4 spore strip, 168 hours exposure to DHP gas at about 0.3 ppm)?
Answer: −

Question: What about the “Color Change within 24 hour incubation” value [1, 16] of the same compound?
Answer: −

Question: And the “Time of Change” value [1, 16]?
Answer: 15 h

Question: What about the “Biological Change” value [1, 17] of the same compound?
Answer: no turbidity

Question: And the “Color Change within 24 hour incubation” value [1, 17]?
Answer: very dark orange

Question: What about the “Time of Change” value [1, 17] of the same compound?
Answer: 22 h

Question: And the “Biological Change” value [1, 18]?
Answer: no turbidity

Question: And the “Time of Change” value [1, 18]?
Answer: 14 h and 22 h

Question: What about the “Biological Change” value [1, 19] of the same compound?
Answer: no turbidity

Question: And the “Color Change within 24 hour incubation” value [1, 19]?
Answer: darker orange

Question: What about the “Time of Change” value [1, 19] of the same compound?
Answer: 17 h

Question: What about the “Time to 90% reduction” value (Feline calicivirus) of the same compound?
Answer: <2 h

Question: And the “Time to 90% reduction” value (H1N1 virus)?
Answer: less than 30 minutes

Question: What about the “Time to 90% reduction” value (H1N1 virus; listed as DHP Gas) of the same compound?
Answer: 22.9 min

Question: And the “Time to 90% reduction” value (Streptococcus pyogenes)?
Answer: <4 h

Question: And the “Mold spoilage after 5-day incubation” value [2]?
Answer: no signs of mold spoilage

Question: What about the “Reduction at 24 hours” value (C. difficile (spores)) of the same compound?
Answer: 70.4% at 24

Question: What about the “Time to 90% reduction” value [3] of the same compound?
Answer: 7 h

Question: And the “Time to 90% reduction” value (MRSA; soil load not stated)?
Answer: under 5 hours

Question: What about the “Time to 90% reduction” value (MRSA; with soil load, DHP gas 0.6 ppm, 0.5 × 10^5 per inch^2) of the same compound?
Answer: 4.6 h

Question: And the “Time to 90% reduction” value (MRSA; without soil load, DHP gas 0.6 ppm, 1 × 10^5 per inch^2)?
Answer: 2.6 h

Question: What about the “Time to 90% reduction” value (MS2 bacteriophage) of the same compound?
Answer: <4 h

Reference: patent US20180289009A1 (Synexis LLC, priority 2015, published 2018)
